The values that follow come from ChEMBL document CHEMBL6103618, “Discovery of Novel Oxazolo[4,3-f]purine Derivatives as Antitumor Agents through PPIA Interaction” (J Med Chem, 2025).

The target of series [1] is T1, Peptidyl-prolyl cis-trans isomerase A (Homo sapiens, UniProt P62937). Briefly: Inhibition of PPIA (unknown origin) using N-succinyl-Ala-Ala-Pro-Phe-p-nitroanilide as substrate preincubated for 1 hr followed by substrate addition measured for 6 mins by absorbance based assay.
For series [2], the target named is T1, Peptidyl-prolyl cis-trans isomerase A. Briefly: Inhibition of PPIA (unknown origin).
For the next series, the system named is HCT-116. Nature of the series: Antiproliferative activity against human HCT-116 cells assessed as inhibition of cell viability incubated for 48 hrs by CCK8 assay. The conditions noted are these: HCT-116, 48 h. The series is classed as functional, cell-based.
In a further series the test system is PANC-1. Briefly: Antiproliferative activity against human PANC-1 cells assessed as inhibition of cell viability incubated for 48 hrs by CCK8 assay. Format: functional, cell-based. The conditions noted are these: PANC-1, 48 h.
The next series relates to MCF7. Nature of the series: Antiproliferative activity against human MCF7 cells assessed as inhibition of cell viability incubated for 48 hrs by CCK8 assay. The series is classed as functional, cell-based. The conditions noted are these: MCF7, 48 h.
A further series deals with HeLa. Nature of the series: Antiproliferative activity against human HeLa cells assessed as inhibition of cell viability incubated for 48 hrs by CCK8 assay. The series is classed as functional, cell-based.
For a further series, the system named is SW480. Nature of the series: Antiproliferative activity against human SW480 cells assessed as inhibition of cell viability incubated for 48 hrs by CCK8 assay. The series is classed as functional, cell-based. The conditions noted are these: SW480, 48 h.
A further series has as its system HepG2. Nature of the series: Antiproliferative activity against human HepG2 cells assessed as inhibition of cell viability incubated for 48 hrs by CCK8 assay. The series is classed as functional, cell-based. The conditions noted are these: HepG2, 48 h.
A further series deals with CT26. Nature of the series: Antiproliferative activity against mouse CT26 cells assessed as inhibition of cell viability incubated for 48 hrs by CCK8 assay. Format: functional, cell-based. The conditions noted are these: CT26, 48 h.
Series [3] deals with T1, Peptidyl-prolyl cis-trans isomerase A. Briefly: Binding affinity to PPIA (unknown origin) assessed as dissociation constant.
A short description of series [4]: Toxicity in BALB/c mouse implanted with mouse CT26 cells assessed as histopathological change in kidney at 45 mg/kg, ip qd treated for 14 days by H and E staining based analysis. The series is classed as organism-based. The following applies: in vivo, 336 h, time 14 day.
Series [5] is described as follows: Toxicity in BALB/c mouse implanted with mouse CT26 cells assessed as change in body weight at 45 mg/kg, ip qd treated for 14 days. The series is classed as organism-based. The following applies: in vivo, 336 h, time 14 day.
Series [6] in a line: Toxicity in BALB/c mouse implanted with mouse CT26 cells assessed as histopathological change in liver at 45 mg/kg, ip qd treated for 14 days by H and E staining based analysis. The series is classed as organism-based. The following applies: in vivo, 336 h, time 14 day.
Series [7] can be described thus: Toxicity in BALB/c mouse implanted with mouse CT26 cells assessed as histopathological change in heart at 45 mg/kg, ip qd treated for 14 days by H and E staining based analysis. Format: organism-based. The following applies: in vivo, 336 h, time 14 day.
The nature of series [8]: Toxicity in BALB/c mouse implanted with mouse CT26 cells assessed as histopathological change in lung at 45 mg/kg, ip qd treated for 14 days by H and E staining based analysis. Format: organism-based. The conditions noted are these: in vivo, 336 h, time 14 day.
A short description of series [9]: Toxicity in BALB/c mouse implanted with mouse CT26 cells assessed as histopathological change in spleen at 45 mg/kg, ip qd treated for 14 days by H and E staining based analysis. Format: organism-based. The following applies: in vivo, 336 h, time 14 day.

T1 sequence (P62937 whole entry): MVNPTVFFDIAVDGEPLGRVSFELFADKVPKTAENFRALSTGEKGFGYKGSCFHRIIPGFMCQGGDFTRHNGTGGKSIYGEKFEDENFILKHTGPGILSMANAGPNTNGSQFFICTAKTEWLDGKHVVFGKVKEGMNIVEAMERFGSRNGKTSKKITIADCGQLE

`CC[C@H]1C[C@H](C)[C@@]2(NC1=O)O[C@@H](C[C@H](O)[C@@H](C)CC/C=C/C=C(\C)[C@@H]1C/C=C/C=C/[C@H](O)[C@H](C)[C@@H](O)[C@@H](CCC(C)=O)C(=O)N[C@@H](C(C)C)C(=O)N[C@@H](Cc3cc(O)cc(F)c3)C(=O)N3CCC[C@H](N3)C(=O)O1)[C@H](C)[C@H](O)[C@@H]2C` displayed an IC50 in [1] of 0.00049 µM.

In series [2], `C.CC[C@@H]1NC(=O)[C@H]([C@H](O)[C@H](C)CCCCCCNC(C)=O)N(C)C(=O)[C@H](C(C)C)N(C)C(=O)[C@H](CC(C)C)N(C)C(=O)[C@H](CC(C)C)N(C)C(=O)[C@@H](C)NC(=O)[C@H](C)NC(=O)[C@H](CC(C)C)N(C)C(=O)[C@H](C(C)C)NC(=O)[C@H](CC(C)C)N(C)C(=O)[C@@H](C)N(C)C1=O` displayed a Ki of 0.0025 µM.

Take `C=C(C(=O)OC)N1c2nc(Cl)nc(Cl)c2N2C(c3ccccc3Cl)OC(C(=O)OCC)(C(=O)OCC)C12` (racemic): the IC50 was 0.67 µM in the series on HCT-116; 4.46 µM with PANC-1; 1.9 µM in the series on MCF7; 0.89 µM in the series on HeLa; 5.43 µM with SW480; 3.25 µM with HepG2. For the same molecule, the IC50 in the series on CT26 came to 1.12 µM.

For `C=C(C(=O)OCC)N1c2nc(Cl)nc(Cl)c2N2C(c3ccccc3Br)OC(C(=O)OCC)(C(=O)OCC)C12` (racemic), the 50% inhibitory concentration (IC50) in the series on HCT-116 was found to be 6.16 µM; in the series with HeLa it was 4.78 µM.

Regarding `C=C(C(=O)OC)N1c2nc(Cl)nc(Cl)c2N2C(c3ccccc3Br)OC(C(=O)OCC)(C(=O)OCC)C12` (racemic), the IC50 with HCT-116 was 3.11 µM; in the series on PANC-1 it was 4.61 µM; in the series with MCF7 it was 3.49 µM; in the series with HeLa, 2.15 µM; in the series with SW480, 6.99 µM; with HepG2, 4.87 µM. Moreover, the half-maximal inhibitory concentration (IC50) in the series with CT26 was found to be 2.5 µM.

`C=C(C(=O)OC)N1c2nc(Cl)nc(Cl)c2N2C(c3ccccc3)OC(C(=O)OCC)(C(=O)OCC)C12` (racemic): the results for the IC50 with HCT-116 and in the series with HeLa were 2.18 µM and 2.36 µM, respectively.

Take `C/C=C/C[C@@H](C)[C@@H](O)[C@H]1C(=O)N[C@@H](CC)C(=O)N(C)[C@H](C)C(=O)N(CC)[C@@H](C(C)C)C(=O)N[C@@H](C(C)C)C(=O)N(C)[C@@H](CC(C)C)C(=O)N[C@@H](C)C(=O)N[C@H](C)C(=O)N(C)[C@@H](CC(C)C)C(=O)N(C)[C@@H](CC(C)C)C(=O)N(C)[C@@H](C(C)C)C(=O)N1C` [ALISPORIVIR]: the equilibrium dissociation constant (Kd) in [3] came out at 0.008 µM.

Turning to `C/C=C/C[C@@H](C)[C@@H](O)[C@H]1C(=O)N[C@@H](CC)C(=O)N(C)CC(=O)N(C)[C@@H](CC(C)C)C(=O)N[C@@H](C(C)C)C(=O)N(C)[C@@H](CC(C)C)C(=O)N[C@@H](C)C(=O)N[C@H](C)C(=O)N(C)[C@@H](CC(C)C)C(=O)N(C)[C@@H](CC(C)C)C(=O)N(C)[C@@H](C(C)C)C(=O)N1C` [CYCLOSPORINE], the concentration for half-maximal inhibition (IC50) in the series on PANC-1 came to 13.3 µM; in the series on MCF7, 6.12 µM; in the series with HeLa, 2.17 µM; in the series on SW480 it was 5.16 µM; in the series with HepG2, 12.3 µM; with CT26, 11.4 µM.

With `O=c1[nH]cc(F)c(=O)[nH]1` [FLUOROURACIL], the concentration for half-maximal inhibition (IC50) in the series on PANC-1 amounted to 14.7 µM; with HeLa, 4.48 µM; in the series on SW480, 14.2 µM; in the series with HepG2 it was 21.9 µM; in the series with CT26, 3.35 µM. Further, the Activity result was “Non-toxic” in series [4]; “Toxic” in series [5]; “Non-toxic” in [6]; “Non-toxic” in [7]; “Non-toxic” in series [8]; “Non-toxic” in [9].
